Test results published in US20100190795A1, “BETULIN DERIVED COMPOUNDS USEFUL AS ANTIPROTOZOAL AGENTS” (Valtion Teknillinen tutkimuskeskus, priority 2006, published 2010).

Tested on: Leishmania
Assay: Alamar Blue determination of activity against Leishmania (single concentration and GI50)
Type: cell-based, Leishmania donovani, L. tropica
Settings: for activity against leishmaniasis: statement in words in the description; for inhibition at 50 µM: Leishmania, compound concentration 50 µM; for GI50: concentrations between 50 and 0.01 μM
Experimental: Leishmania donovani MHOM/SD/1962/1S-012D and L. tropica MHOM/IS/1990/LRC-L590 protozoa were used in the tests.
Promastigotes were grown in a broth containing Medium-199 (Sigma, St. Louis, Mo.) supplemented with 2 mM L-glutamine, 100 μM adenosine, 23 μM folio acid, antibiotics (100 IU penicillin G and 100 μg/ml streptomycin), 1×BME vitamin mixture, 25 mM 2-(N-morpholin)ethanesulfonic acid (MES), 4.2 mM NaHCO3 and heat treated fetal calf serum (FCS, 10% v/v), pH being adjusted to 6.8, Promastigotes were grown at 26° C.
Axenic amastigotes of L. donovani were grown according to the procedure presented by Debrabant et al., 2004, in the RPMI 1640 broth containing 20% v/v of fetal calf serum (FCS), at 37° C., pH 5.5, Axenic amastigotes of L. tropica were grown as described for L. donovani with the exception that only 10% v/v FCS was used, at 36° C. without CO2.
Each dilution with the desired concentration of the parasite was dispensed as three parallel samples (250 μl/well) to a 96 well microtiter plate having a flat bottom (NUNC, Denmark), followed by the addition of Alamar Blue reagent (25 μl/well, ENCO). The plates were read (λcm=544 nm; λex2=590 nm) after following incubation times (3, 9, 24, 48 and 72 h) using a fluorescence microtiter plate reader (Fluoroskan, Ascent Fla., Finland).
Activity of the compounds was tested both for L. donovani and L. tropica species. Promastigotes (2×10^6 cells/ml) or axenic amastigotes (5.0×10^5 cells/ml) were introduced as three parallel samples (125 μl/well) to 96 well microtiter plates having flat bottoms, the wells containing each compound diluted in the cultivation broth (125 with final concentration of DMSO of 1%), Initially, the concentration of the compounds was […]. Amphotericin B (1 μM) was included as positive control (Sigma, St. Louis, Mo.), Broth containing DMSO was used as negative control. The parasites were tested either with or without the compounds by incubating at 26° C. (promastigotes), at 36° C. (axenic amastogotes of L. tropica) or at 37° C. (axenic amastogotes of L. donovani). After 24 hours, the Alamar Blye reagent (25 μl/well) was added, the plates were still incubater for 24 hours, followed by fluorescence determination. GI50 assay was carried out using the same procedure, the concentrations of the compounds to be tested ranging, however, between 50 and 0.01 μM.
Testing of the compounds was carried out as described in example 32.

[1] = Table 4, 24 h, then Alamar Blue 24 h, fluorescence, species and stage not given
[2] = Table 5, tested as in example 32, species and stage not stated

28-carboxymethoxy mentholester of betulin [betulin 28-carboxymethoxy mentholester]
Inhibition of Leishmania (%) [1]: 16.6%

C=C(C)[C@@H]1CC[C@]2(CO)CC[C@]3(C)[C@H](CC[C@@H]4[C@@]5(C)CC=CC(C)(C)[C@@H]5CC[C@]43C)[C@@H]12 [2,3-didehydro-3-deoxybetulin, reference compound]
Inhibition of Leishmania (%) [1]: 13.2%

CC(C)[C@@H]1CC[C@]2(C(=O)O)CC[C@]3(C)[C@H](CC[C@@H]4[C@@]5(C)CCC(=O)C(C)(C)[C@@H]5CC[C@]43C)[C@@H]12 [20,29-hydrobetulonic acid, 20,29-dihydrobetulonic acid]
Inhibition of Leishmania (%) [1]: 73.4%

C=C(C)[C@@H]1CC[C@]2(COC(=O)c3ccccc3NC(C)=O)CC[C@]3(C)C(CCC4[C@@]5(C)CC[C@H](O)C(C)(C)C5CC[C@]43C)C12 (stereo partly shown) [28-N-acetylanthranilic acid ester of betulin]
Inhibition of Leishmania (%) [1]: 59.2% | activity against leishmaniasis: considerable activity

C=C(C)C1CCC2(COC(C)=O)CCC3(C)C(CCC4C5(C)CCC(=O)C(C)(C)C5CCC43C)C12 (stereo not shown) [28-acetate of betulonic alcohol]
Inhibition of Leishmania (%) [1]: 40.6%

C=C(C)C1CCC2(C(=O)NC(CC(=O)OC)C(=O)OC)CCC3(C)C(CCC4C5(C)CCC(=O)C(C)(C)C5CCC43C)C12 (stereo not shown) [28-aspartateamide dimethyl ester of betulonic acid]
Inhibition of Leishmania (%) [1]: 69.3% | activity against leishmaniasis: considerable activity

C=C(C)C1CCC2(C(=O)OC)CCC3(C)C(CCC4C5(C)CCC(=O)C(C)(C)C5CCC43C)C12 (stereo not shown) [28-methylester of betulonic acid]
Inhibition of Leishmania (%) [1]: 40.1%

C[C@@H]1[C@H](O)[C@@H](C)/C=C/C=C/C=C/C=C/C=C/C=C/C=C/[C@H](O[C@@H]2O[C@H](C)[C@@H](O)[C@H](N)[C@@H]2O)C[C@@H]2O[C@](O)(C[C@@H](O)C[C@@H](O)[C@H](O)CC[C@@H](O)C[C@@H](O)CC(=O)O[C@H]1C)C[C@H](O)[C@H]2C(=O)O [amphotericine B, Amphotericin B, reference compound]
Inhibition of Leishmania (%) (Table 4, positive control at 1 μM): 55.4% | Inhibition of Leishmania (%) (Table 5, positive control at 1 μM): 55.4%

C=C(C)[C@@H]1CC[C@]2(/C=N/O)CC[C@]3(C)[C@H](CC[C@@H]4[C@@]5(C)CC/C(=N\O)C(C)(C)[C@@H]5CC[C@]43C)[C@@H]12 [betulin 3,28-dioxime]
Inhibition of Leishmania (%) [1]: 72.4%

C=C(C)C1CCC2(C#N)CCC3(C)C(CCC4C5(C)CCC(=NOC(C)=O)C(C)(C)C5CCC43C)C12 (stereo not shown) [betulin 3-acetoxyoxime-28-nitrile]
Inhibition of Leishmania (%) [1]: 66.4% | activity against leishmaniasis: considerable activity

C=C(C)[C@@H]1CC[C@]2(COC(=O)C3C(C=C(C)C)C3(C)C)CC[C@]3(C)[C@H](CC[C@@H]4[C@@]5(C)CC[C@H](O)C(C)(C)[C@@H]5CC[C@]43C)[C@@H]12 (stereo partly shown) [betulin 28-chrysanthemate, 28-chrysanthemate of betulin]
Inhibition of Leishmania (%) [1]: 13.4%

C=C(C)[C@@H]1CC[C@]2(/C=N/O)CC[C@]3(C)[C@H](CC[C@@H]4[C@@]5(C)CC[C@H](O)C(C)(C)[C@@H]5CC[C@]43C)[C@@H]12 [betulin 28-oxime]
Inhibition of Leishmania (%) [1]: 66.8%

C=C(C)[C@@H]1CC[C@]2(CO)CC[C@]3(C)[C@H](CC[C@@H]4[C@@]5(C)CC[C@H](O)C(C)(C)[C@@H]5CC[C@]43C)[C@@H]12 [betulin, lup-20(29)-ene-3β,28-diol]
inhibition at 50 µM [1]: 35%

C=C(C)[C@@H]1CC[C@]2(C(=O)O)CC[C@]3(C)[C@H](CC[C@@H]4[C@@]5(C)CC[C@H](O)C(C)(C)[C@@H]5CC[C@]43C)[C@@H]12 [betulinic acid, reference compound]
inhibition at 50 µM [1]: 39.8%

C=C(C)[C@@H]1CC[C@]2(C=O)CC[C@]3(C)[C@H](CC[C@@H]4[C@@]5(C)CC[C@H](O)C(C)(C)[C@@H]5CC[C@]43C)[C@@H]12 [betulinic aldehyde, reference compound]
inhibition at 50 µM [1]: 65%

C=C(C)[C@@H]1CC[C@]2(C(=O)O)CC[C@]3(C)[C@H](CC[C@@H]4[C@@]5(C)CCC(=O)C(C)(C)[C@@H]5CC[C@]43C)[C@@H]12 [betulonic acid]
Inhibition of Leishmania (%) [1]: 97.6% | activity against leishmaniasis: considerable activity

C=C(C)[C@@H]1CC[C@]2(CO)CC[C@]3(C)[C@H](CC[C@@H]4[C@@]5(C)CCC(=O)C(C)(C)[C@@H]5CC[C@]43C)[C@@H]12 [betulonic alcohol]
Inhibition of Leishmania (%) [1]: 44.0%

C=C(C)[C@@H]1CC[C@]2(C=O)CC[C@]3(C)[C@H](CC[C@@H]4[C@@]5(C)CCC(=O)C(C)(C)[C@@H]5CC[C@]43C)[C@@H]12 [betulonic aldehyde, reference compound]
Inhibition of Leishmania (%) [1]: 46.2%

Dials-Alder adduct of 3β,28-diacetoxylupa-12,18-diene and p-chloro-4-phenylurazole
Inhibition of Leishmania (%) [2]: 27.3%

Diels-Alder adduct of 3β,28-diacetoxylupa-12,18-diene and 1,3-dioxol-5-ylurazole
Inhibition of Leishmania (%) [2]: 52.2% | activity against leishmaniasis: considerable activity

Diels-Alder adduct of 3β,28-diacetoxylupa-12,18-diene and 1-naphthylurazole
Inhibition of Leishmania (%) [2]: 57.7% | activity against leishmaniasis: considerable activity

Diels-Alder adduct of 3β,28-diacetoxylupa-12,18-diene and 4-benzoylurazole
Inhibition of Leishmania (%) [2]: 24.7%

Diels-Alder adduct of 3β,28-diacetoxylupa-12,18-diene and 4-methylurazole
GI50 (Table 5): 8.9 µM | Inhibition of Leishmania (%) [2]: 98.2% | activity against leishmaniasis: considerable activity

Diels-Alder adduct of 3β,28-diacetoxylupa-12,18-diene and 4-phenylurazole
Inhibition of Leishmania (%) [2]: 36.2%

Diels-Alder adduct of 3β,28-diacetoxylupa-12,18-diene and indan-5-yl urazole
Inhibition of Leishmania (%) [2]: 22.5%

Diels-Alder adduct of 3β,28-diacetoxylupa-12,18-diene and m-chloro-4-phenylurazole
Inhibition of Leishmania (%) [2]: 29.7%

Diels-Alder adduct of 3β,28-diacetoxylupa-12,18-diene and m-methoxy-4-phenylurazole
Inhibition of Leishmania (%) [2]: 43.5%

Diels-Alder adduct of 3β,28-diacetoxylupa-12,18-diene and m-nitroxy-4-phenylurazole
Inhibition of Leishmania (%) [2]: 29.5%

Diels-Alder adduct of 3β,28-diacetoxylupa-12,18-diene and p-acetoxy-4-phenylurazole
Inhibition of Leishmania (%) [2]: 44.7%

Diels-Alder adduct of 3β,28-diacetoxylupa-12,18-diene and p-fluoro-4-phenylurazole
Inhibition of Leishmania (%) [2]: 47.8%

Diels-Alder adduct of 3β,28-diacetoxylupa-12,18-diene and urazole
GI50 (Table 5): 25.5 µM | Inhibition of Leishmania (%) [2]: 87.6% | activity against leishmaniasis: considerable activity

Diels-Alder adduct of lupa-12,18-diene and 4-methylurazole
Inhibition of Leishmania (%) [2]: 50.0%

Diels-Alder adduct of lupa-12,18-diene and 4-phenylurazole
Inhibition of Leishmania (%) [2]: 47.5%

betulin 28-acetic acid methyl ester [betulin 28-acetic acid methylester]
Inhibition of Leishmania (%) (Table 4, compound concentration, 24 h, then Alamar Blue 24 h, fluorescence, species and stage not given): 95.3% | activity against leishmaniasis: considerable activity
